Converted amounts (≈) assume the structure as drawn.
Experiments:
Assay type in all cases: functional
Haemophilus influenzae [1] = experiment: Antibacterial activity against Haemophilus influenzae isolate 283 by agar dilution method
Enterococcus [2] = experiment: Antibacterial activity against vancomycin-sensitive Enterococcus by agar dilution method
Streptococcus pneumoniae = experiment: Antibacterial activity against Streptococcus pneumoniae by agar dilution method
Staphylococcus aureus [3] = experiment: Antibacterial activity against Staphylococcus aureus ATCC 25923 by agar dilution method in presence of human plasma; conditions: ATCC 25923, Plasma
Enterococcus [4] = experiment: Antibacterial activity against vancomycin-resistant Enterococcus by agar dilution method
Staphylococcus aureus [5] = experiment: Antibacterial activity against Staphylococcus aureus ATCC 25923 by agar dilution method
Staphylococcus [6] = experiment: Antibacterial activity against methicillin resistant coagulase-negative Staphylococcus by agar dilution method
Moraxella catarrhalis = experiment: Antibacterial activity against Moraxella catarrhalis by agar dilution method
Escherichia coli = experiment: Antibacterial activity against Escherichia coli ATCC 25922 by agar dilution method
Staphylococcus [7] = experiment: Antibacterial activity against methicillin-sensitive coagulase-negative Staphylococcus by agar dilution method
Haemophilus influenzae [8] = experiment: Antibacterial activity against Haemophilus influenzae isolate 280 by agar dilution method
Staphylococcus aureus [9] = experiment: Antibacterial activity against methicillin-resistant Staphylococcus aureus by agar dilution method
Haemophilus influenzae [10] = experiment: Antibacterial activity against Haemophilus influenzae isolate 282 by agar dilution method
Haemophilus influenzae [11] = experiment: Antibacterial activity against Haemophilus influenzae ATCC 49247 by agar dilution method
Haemophilus influenzae [12] = experiment: Antibacterial activity against Haemophilus influenzae isolate 285 by agar dilution method
Staphylococcus aureus [13] = experiment: Antibacterial activity against methicillin-susceptible Staphylococcus aureus by agar dilution method

Row | Structure (SMILES) | MIC (Haemophilus influenzae [1]) [µg/mL] | MIC (Enterococcus [2]) [µg/mL] | MIC (Streptococcus pneumoniae) [µg/mL] | MIC (Staphylococcus aureus [3]) [µg/mL] | MIC (Enterococcus [4]) [µg/mL] | MIC (Staphylococcus aureus [5]) [µg/mL] | MIC (Staphylococcus [6]) [µg/mL] | MIC (Moraxella catarrhalis) [µg/mL] | MIC (Escherichia coli) [µg/mL] | MIC (Staphylococcus [7]) [µg/mL] | MIC (Haemophilus influenzae [8]) [µg/mL] | MIC (Staphylococcus aureus [9]) [µg/mL] | MIC (Haemophilus influenzae [10]) [µg/mL] | MIC (Haemophilus influenzae [11]) [µg/mL] | MIC (Haemophilus influenzae [12]) [µg/mL] | MIC (Staphylococcus aureus [13]) [µg/mL]
1 | Cc1cn(C[C@H]2CN(c3ccc(N4CCN(C(=O)C5CCC5)CC4)c(F)c3)C(=O)O2)nn1 | 32 (≈ 72.3 µM) | 2 (≈ 4.52 µM) | 4 (≈ 9.04 µM) | 16 | 2 (≈ 4.52 µM) | 4 (≈ 9.04 µM) | 2 (≈ 4.52 µM) | 32 (≈ 72.3 µM) | > 64 | 2 (≈ 4.52 µM) | 32 (≈ 72.3 µM) | 2 (≈ 4.52 µM) | 32 (≈ 72.3 µM) | 32 (≈ 72.3 µM) | 32 (≈ 72.3 µM) | 2 (≈ 4.52 µM)
2 | CCCCCCC(=O)N1CCN(c2ccc(N3C[C@H](Cn4cc(C)nn4)OC3=O)cc2F)CC1 | > 64 | 4 (≈ 8.46 µM) | 8 (≈ 16.9 µM) | > 64 | 4 (≈ 8.46 µM) | 8 (≈ 16.9 µM) | 8 (≈ 16.9 µM) | 64 (≈ 135 µM) | > 64 | 4 (≈ 8.46 µM) | > 64 | 8 (≈ 16.9 µM) | > 64 | > 64 | > 64 | 8 (≈ 16.9 µM)
3 | Cc1cn(C[C@H]2CN(c3ccc(N4CCN(C(=O)C5CC5)CC4)c(F)c3)C(=O)O2)nn1 | 32 (≈ 74.7 µM) | 1 (≈ 2.33 µM) | 2 (≈ 4.67 µM) | 16 | 1 (≈ 2.33 µM) | 2 (≈ 4.67 µM) | 1 (≈ 2.33 µM) | 16 (≈ 37.3 µM) | > 64 | 1 (≈ 2.33 µM) | 32 (≈ 74.7 µM) | 2 (≈ 4.67 µM) | 32 (≈ 74.7 µM) | 32 (≈ 74.7 µM) | 32 (≈ 74.7 µM) | 2 (≈ 4.67 µM)
4 | Cc1cn(C[C@H]2CN(c3ccc(N4CCOCC4)c(F)c3)C(=O)O2)nn1 | 64 (≈ 177 µM) | 1 (≈ 2.77 µM) | 1 (≈ 2.77 µM) | 4 | 1 (≈ 2.77 µM) | 2 (≈ 5.53 µM) | 1 (≈ 2.77 µM) | 8 (≈ 22.1 µM) | > 64 | 1 (≈ 2.77 µM) | 64 (≈ 177 µM) | 0.5 (≈ 1.38 µM) | 64 (≈ 177 µM) | 64 (≈ 177 µM) | 64 (≈ 177 µM) | 1 (≈ 2.77 µM)
5 | Cc1cn(C[C@H]2CN(c3ccc(N4CCN(C(=O)C(Cl)Cl)CC4)c(F)c3)C(=O)O2)nn1 | 64 (≈ 136 µM) | 1 (≈ 2.12 µM) | 1 (≈ 2.12 µM) | 8 | 1 (≈ 2.12 µM) | 2 (≈ 4.24 µM) | 0.5 (≈ 1.06 µM) | 16 (≈ 33.9 µM) | > 64 | 1 (≈ 2.12 µM) | 32 (≈ 67.9 µM) | 1 (≈ 2.12 µM) | 32 (≈ 67.9 µM) | 64 (≈ 136 µM) | 32 (≈ 67.9 µM) | 1 (≈ 2.12 µM)
6 | Cc1cn(C[C@H]2CN(c3ccc(N4CCN(C(=O)/C=C/c5ccccc5)CC4)c(F)c3)C(=O)O2)nn1 | > 64 | 8 (≈ 16.3 µM) | 8 (≈ 16.3 µM) | > 64 | 8 (≈ 16.3 µM) | 16 (≈ 32.6 µM) | 8 (≈ 16.3 µM) | 64 (≈ 130 µM) | > 64 | 8 (≈ 16.3 µM) | > 64 | 8 (≈ 16.3 µM) | > 64 | > 64 | > 64 | 16 (≈ 32.6 µM)
7 | CCC(C)C(=O)N1CCN(c2ccc(N3C[C@H](Cn4cc(C)nn4)OC3=O)cc2F)CC1 (stereo not given in full) | > 64 | 4 (≈ 9 µM) | 4 (≈ 9 µM) | 32 | 4 (≈ 9 µM) | 2 (≈ 4.5 µM) | 2 (≈ 4.5 µM) | 32 (≈ 72 µM) | > 64 | 2 (≈ 4.5 µM) | > 64 | 2 (≈ 4.5 µM) | > 64 | > 64 | > 64 | 2 (≈ 4.5 µM)
8 | Cc1cn(C[C@H]2CN(c3ccc(N4CCN(C(=O)C(C)C)CC4)c(F)c3)C(=O)O2)nn1 | > 64 | 1 (≈ 2.32 µM) | 2 (≈ 4.65 µM) | 16 | 0.5 (≈ 1.16 µM) | 1 (≈ 2.32 µM) | 0.5 (≈ 1.16 µM) | 16 (≈ 37.2 µM) | > 64 | 0.5 (≈ 1.16 µM) | > 64 | 0.5 (≈ 1.16 µM) | > 64 | > 64 | > 64 | 1 (≈ 2.32 µM)
9 | CN[C@H](CC(C)C)C(=O)N[C@H]1C(=O)N[C@@H](CC(N)=O)C(=O)N[C@H]2C(=O)N[C@H]3C(=O)N[C@H](C(=O)N[C@H](C(=O)O)c4cc(O)cc(O)c4-c4cc3ccc4O)[C@H](O)c3ccc(c(Cl)c3)Oc3cc2cc(c3O[C@@H]2O[C@H](CO)[C@@H](O)[C@H](O)[C@H]2O[C@H]2C[C@](C)(N)[C@H](O)[C@H](C)O2)Oc2ccc(cc2Cl)[C@H]1O [VANCOMYCIN] | > 16 | 0.25 (≈ 0.173 µM) | 0.5 (≈ 0.345 µM) | – | > 64 | – | 1 (≈ 0.69 µM) | > 16 | > 64 | 1 (≈ 0.69 µM) | > 16 | – | > 16 | > 16 | > 16 | –
10 | Cc1cn(C[C@H]2CN(c3ccc(N4CCN(C(=O)OC(C)(C)C)CC4)c(F)c3)C(=O)O2)nn1 | > 64 | – | 8 (≈ 17.4 µM) | 64 | – | – | – | 64 (≈ 139 µM) | > 64 | – | > 64 | – | > 64 | > 64 | > 64 | 2 (≈ 4.34 µM)
